Patent US11690839B2, “Treatment of idiopathic pulmonary fibrosis” (TAKEDA GMBH, priority 2017, dated 2023)
Read-outs that look alike come from different tables or passages of the source.

What was measured:
[1] = test system: IPF mice model (DTR+ mice given diphtheria toxin); format: in vivo
[2] = test system: WI-38 human lung fibroblasts; assay: TGF-β induced mRNA expression of pro-fibrotic markers in WI-38 human lung fibroblast cell line; format: cell-based; conditions: WI-38 cells, various concentrations of Compound A 1 hour before TGF-β (3 ng/mL) and forskolin (1 μM), 24 hours incubation, normalized to GAPDH; FIG. 2
Procedure: 2) In Vitro Effects of PDE4 Inhibitor Compound A in […]
For gene expression assay, WI-38 human lung fibroblasts were suspended in Eagle's minimum essential medium (E-MEM, Invitrogen) containing 10% heat-inactivated fetal bovine serum (FBS) and seeded on 24 well plates as 0.5×10^5 cells/500 μL/well. Twenty-four hours after the seeding, medium was re-placed by E-MEM containing 0.5% FBS. Twenty-four hours after medium change, cells were treated with various concentration of Compound A. After 1 hour, cells were treated with TGF-β (3 ng/mL) and forskolin (1 μM). After the 24-hours incubation, total RNA was ex-tracted from cell lysate using RNeasy 96 Kit (QIAGEN 74182). cDNA was amplified using High-Capacity cDNA Reverse Transcription Kit (ABI 4368813), and target gene mRNA was measured using TaqMan PCR with predesigned primers for type 1 collagen alpha 1 chain (Hs00164004_m1, Applied Biosystems), fibronectin (Hs00365052_m1, Applied Biosystems), connective tissue growth factor (Hs01026927_g1, Applied Biosystems), plasminogen activator inhibitor-1 (Hs00167155_m1, Applied Biosystems) and GAPDH (Hs02758991_g1, Applied Biosystems) as the endogenous reference. The target gene expression levels were normalized by mRNA expression of GAPDH and the data represent the relative mRNA levels to TGF-β/forskolin-treated group.

| SMILES | body weight reduction by induction of epithelial cell injury ([1]; DT day 1-14, Compound A 0.3 or 3.0 mg/kg oral once daily day 11-21, FIG. 1B) | suppression of lung hydroxyproline content (severity of lung fibrosis) ([1]; DT day 1-14, Compound A oral gavage once daily day 11-21, already starting at 0.3 mg/kg (doses 0.3 and 3.0 mg/kg), assessed day 21, FIG. 1A) | mRNA expression of fibrotic marker genes (type 1 collagen alpha 1, fibronectin, connective tissue growth factor, plasminogen activator inhibitor-1) induced by TGF-β [2] | body weight reduction by induction of epithelial cell injury ([1]; DT day 1-14, imatinib 50 mg/kg intraperitoneal once daily day 11-21, FIG. 1B) | suppression of lung hydroxyproline content (severity of lung fibrosis) ([1]; DT day 1-14, imatinib 50 mg/kg intraperitoneal once daily day 11-21, assessed day 21, FIG. 1A) |
| --- | --- | --- | --- | --- | --- |
| CCOc1cc2c(cc1OC)C(c1ccc(=O)n(C)c1)=N[C@@H]1CC[C@@H](O)C[C@H]21 [Compound A, 5-((2R,4aR,10bR)-9-Ethoxy-2-hydroxy-8-methoxy-1,2,3,4,4a,10b-hexahydro-phenanthridin-6-yl)-1-methyl-1H-pyridin-2-one] | blunting effect was shown | robust and significant effect on suppression of hydroxyproline content | significantly suppressed expression of fibrotic marker genes induced by TGF-β | – | – |
| Cc1ccc(NC(=O)c2ccc(CN3CCN(C)CC3)cc2)cc1Nc1nccc(-c2cccnc2)n1 [Imatinib, reference compound] | – | – | – | not blunted | only a moderate efficacy |
